Laboratory results from ChEMBL document CHEMBL1212924 (J Med Chem, 2010).

Tested on: not listed separately
Experiment: in vitro
Conditions: human, liver microsomes
Description: Half life in human liver microsome at 2 mg/mL

Row | half-life [h] | Structure (SMILES)
1 | 1.68 | COc1ccc2c(c1)C[C@@H](C(=O)Nc1ccc(-c3cn[nH]c3)cc1OCCN(C)C)NC2
2 | 0.367 | COc1ccc2c(c1)C[C@H](C(=O)Nc1ccc(-c3cn[nH]c3)cc1SCCN(C)C)NC2
3 | 0.267 | CN(C)CCOc1cc(-c2cn[nH]c2)c(F)cc1NC(=O)[C@H]1Cc2ccccc2CN1C
4 | 1.63 | CN(C)CCOc1cc(-c2cn[nH]c2)ccc1NC(=O)[C@H]1Cc2ccccc2CN1
5 | 1.12 | NC(Cc1ccc(Cl)cc1)C(=O)Nc1ccc(-c2cn[nH]c2)cc1 (stereo unspecified)
6 | 1.4 | NC(C(=O)Nc1ccc(-c2cn[nH]c2)cc1)c1ccc(Cl)cc1 (stereo unspecified)
7 | 0.183 | COc1ccc2c(c1)C[C@H](C(=O)Nc1ccc(-c3c[nH]nc3C)cc1SCCN(C)C)NC2
8 | 0.283 | CN(C)CCOc1cc(-c2cn[nH]c2)ccc1NC(=O)[C@@H]1Cc2cc(Cl)ccc2CN1
9 | 1.73 | COc1ccc2c(c1)C[C@H](C(=O)Nc1ccc(-c3cn[nH]c3)cc1OC1CCN(C)CC1)NC2
10 | 1.63 | CN(C)CCOc1cc(-c2cn[nH]c2)ccc1NC(=O)[C@@H]1Cc2ccccc2CN1

Row | Structure (SMILES) | half-life [h]
11 | CN(C)CCOc1cc(-c2cn[nH]c2)c(F)cc1NC(=O)[C@H]1Cc2ccccc2CN1C(=O)CN(C)C | 0.233

Target: Rho-associated protein kinase 2 (Homo sapiens, UniProt O75116)
Sequence (O75116 whole entry): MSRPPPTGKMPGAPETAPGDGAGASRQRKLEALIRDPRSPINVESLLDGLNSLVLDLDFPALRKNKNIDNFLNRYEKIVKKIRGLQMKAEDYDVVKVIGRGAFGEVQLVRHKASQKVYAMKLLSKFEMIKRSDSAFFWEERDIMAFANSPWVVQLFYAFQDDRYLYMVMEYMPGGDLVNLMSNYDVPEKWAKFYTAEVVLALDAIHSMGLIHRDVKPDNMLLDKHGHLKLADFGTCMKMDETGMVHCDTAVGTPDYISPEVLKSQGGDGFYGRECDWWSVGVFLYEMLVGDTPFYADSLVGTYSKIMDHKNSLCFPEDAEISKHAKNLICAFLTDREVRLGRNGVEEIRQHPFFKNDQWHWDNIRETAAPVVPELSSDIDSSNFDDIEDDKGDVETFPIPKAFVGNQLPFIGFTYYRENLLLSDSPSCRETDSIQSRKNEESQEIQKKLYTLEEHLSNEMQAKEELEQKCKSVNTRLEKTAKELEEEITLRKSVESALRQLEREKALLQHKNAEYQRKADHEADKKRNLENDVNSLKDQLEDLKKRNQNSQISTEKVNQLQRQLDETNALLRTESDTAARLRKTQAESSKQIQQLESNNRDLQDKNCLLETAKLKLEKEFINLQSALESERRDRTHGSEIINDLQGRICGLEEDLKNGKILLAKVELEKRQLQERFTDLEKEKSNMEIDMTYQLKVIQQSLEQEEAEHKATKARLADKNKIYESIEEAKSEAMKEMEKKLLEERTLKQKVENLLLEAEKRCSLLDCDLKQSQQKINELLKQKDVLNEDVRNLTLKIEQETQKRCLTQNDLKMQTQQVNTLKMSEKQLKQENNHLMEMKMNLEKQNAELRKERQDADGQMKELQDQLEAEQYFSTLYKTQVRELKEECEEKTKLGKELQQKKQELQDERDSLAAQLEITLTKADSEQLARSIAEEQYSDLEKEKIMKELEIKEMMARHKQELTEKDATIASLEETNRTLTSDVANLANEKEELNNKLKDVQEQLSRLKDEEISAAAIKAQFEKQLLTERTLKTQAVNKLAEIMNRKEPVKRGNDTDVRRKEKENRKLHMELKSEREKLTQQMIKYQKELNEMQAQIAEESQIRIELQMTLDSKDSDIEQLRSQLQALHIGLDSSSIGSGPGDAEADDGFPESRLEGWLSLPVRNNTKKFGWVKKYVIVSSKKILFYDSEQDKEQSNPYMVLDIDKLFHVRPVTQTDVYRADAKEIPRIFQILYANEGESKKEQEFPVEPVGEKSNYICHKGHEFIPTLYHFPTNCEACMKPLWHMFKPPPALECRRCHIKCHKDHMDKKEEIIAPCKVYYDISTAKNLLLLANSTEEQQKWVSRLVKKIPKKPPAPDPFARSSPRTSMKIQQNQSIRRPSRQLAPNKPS
Experiment: not given
Conditions: not given

Row | Structure (SMILES) | IC50 [nM]
12 | COc1ccc2c(c1)CN[C@@H](C(=O)Nc1ccc(-c3cn[nH]c3)cc1OCCN(C)C)C2 | 850
13 | COc1cccc2c1CNC(C(=O)Nc1ccc(-c3cn[nH]c3)cc1OCCN(C)C)C2 (racemic) | 261
14 | CN(C)CCOc1cc(-c2cn[nH]c2)c(F)cc1NC(=O)[C@H]1Cc2ccccc2CN1C(=O)CN(C)C | 775
15 | CCOc1ccc2c(c1)CC(C(=O)Nc1ccc(-c3cn[nH]c3)cc1OCCN(C)C)NC2 (racemic) | 156
16 | COc1ccc2c(c1)C[C@H](C(=O)Nc1ccc(-c3cn[nH]c3)cc1)NC2 | 334
